Measured values taken from ChEMBL document CHEMBL5291721, “A preclinical secondary pharmacology resource illuminates target-adverse drug reaction associations of marketed drugs” (Nat Commun, 2023).

What was measured:
[1] = molecular target: Delta-type opioid receptor (Homo sapiens, UniProt P41143)
[2] = molecular target: T1, Amine oxidase [flavin-containing] A (Homo sapiens, UniProt P21397); format: functional
T1 sequence (P21397 whole entry): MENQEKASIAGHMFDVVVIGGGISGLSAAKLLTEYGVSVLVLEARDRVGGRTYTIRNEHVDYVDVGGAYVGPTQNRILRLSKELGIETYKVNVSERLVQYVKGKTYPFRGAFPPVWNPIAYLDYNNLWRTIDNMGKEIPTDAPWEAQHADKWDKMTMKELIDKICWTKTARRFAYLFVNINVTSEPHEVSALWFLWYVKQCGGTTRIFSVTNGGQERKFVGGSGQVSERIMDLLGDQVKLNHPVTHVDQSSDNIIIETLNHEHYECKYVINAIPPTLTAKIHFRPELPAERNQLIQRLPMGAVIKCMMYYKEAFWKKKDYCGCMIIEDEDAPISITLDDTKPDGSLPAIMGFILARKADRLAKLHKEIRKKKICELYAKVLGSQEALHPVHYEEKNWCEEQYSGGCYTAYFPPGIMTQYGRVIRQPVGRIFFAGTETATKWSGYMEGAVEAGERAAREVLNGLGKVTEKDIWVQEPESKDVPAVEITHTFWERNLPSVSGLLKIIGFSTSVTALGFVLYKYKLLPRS

[3] = molecular target: T2, Neuropeptide Y receptor type 1 (Homo sapiens, UniProt P25929); conditions: read-out: AC50
T2 sequence (P25929 whole entry): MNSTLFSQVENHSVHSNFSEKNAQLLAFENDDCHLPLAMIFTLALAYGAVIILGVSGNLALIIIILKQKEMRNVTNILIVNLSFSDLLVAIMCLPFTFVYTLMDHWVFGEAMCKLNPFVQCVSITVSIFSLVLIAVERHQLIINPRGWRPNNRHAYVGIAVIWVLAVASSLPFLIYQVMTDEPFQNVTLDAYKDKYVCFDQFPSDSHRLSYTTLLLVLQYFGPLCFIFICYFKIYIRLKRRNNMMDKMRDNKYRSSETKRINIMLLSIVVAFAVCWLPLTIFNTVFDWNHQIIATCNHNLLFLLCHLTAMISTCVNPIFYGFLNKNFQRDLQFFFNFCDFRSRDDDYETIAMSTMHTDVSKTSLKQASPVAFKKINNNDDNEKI

[4] = molecular target: Growth hormone secretagogue receptor type 1 (Homo sapiens, UniProt Q92847)
Vasopressin V2 receptor = Vasopressin V2 receptor (Homo sapiens, UniProt P30518)
Motilin receptor = Motilin receptor (Homo sapiens, UniProt O43193)
[5] = molecular target: cGMP-inhibited 3',5'-cyclic phosphodiesterase 3A (Homo sapiens, UniProt Q14432); format: functional
[6] = molecular target: 3',5'-cyclic-AMP phosphodiesterase 4D (Homo sapiens, UniProt Q08499); format: functional
B2 bradykinin receptor = molecular target: T3, B2 bradykinin receptor (Homo sapiens, UniProt P30411)
T3 sequence (P30411 whole entry): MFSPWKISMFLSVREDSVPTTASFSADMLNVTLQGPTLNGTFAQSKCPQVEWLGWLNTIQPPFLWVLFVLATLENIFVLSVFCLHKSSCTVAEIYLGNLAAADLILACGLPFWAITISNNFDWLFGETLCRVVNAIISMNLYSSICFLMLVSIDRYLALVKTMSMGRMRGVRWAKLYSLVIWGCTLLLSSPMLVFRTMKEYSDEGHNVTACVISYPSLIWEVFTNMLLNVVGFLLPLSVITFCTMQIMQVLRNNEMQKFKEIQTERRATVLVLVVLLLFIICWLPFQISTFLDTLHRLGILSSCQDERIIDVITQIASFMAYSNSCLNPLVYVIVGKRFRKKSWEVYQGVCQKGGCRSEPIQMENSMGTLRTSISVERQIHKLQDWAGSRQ

[7] = molecular target: T4, 5-hydroxytryptamine receptor 1A (Homo sapiens, UniProt P08908); format: functional, cell-based
T4 sequence (P08908 whole entry): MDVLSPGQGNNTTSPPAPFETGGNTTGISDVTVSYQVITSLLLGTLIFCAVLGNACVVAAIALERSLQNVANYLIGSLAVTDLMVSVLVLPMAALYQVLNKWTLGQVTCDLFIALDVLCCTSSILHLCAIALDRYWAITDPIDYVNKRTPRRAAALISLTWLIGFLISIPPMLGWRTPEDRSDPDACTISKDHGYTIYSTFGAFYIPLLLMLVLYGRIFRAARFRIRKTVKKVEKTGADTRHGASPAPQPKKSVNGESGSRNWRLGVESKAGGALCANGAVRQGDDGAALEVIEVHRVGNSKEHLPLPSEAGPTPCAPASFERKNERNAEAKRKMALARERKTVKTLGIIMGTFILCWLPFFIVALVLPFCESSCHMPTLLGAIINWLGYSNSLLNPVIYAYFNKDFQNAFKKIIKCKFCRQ

[8] = molecular target: T5, Cholecystokinin receptor type A (Homo sapiens, UniProt P32238)
T5 sequence (P32238 whole entry): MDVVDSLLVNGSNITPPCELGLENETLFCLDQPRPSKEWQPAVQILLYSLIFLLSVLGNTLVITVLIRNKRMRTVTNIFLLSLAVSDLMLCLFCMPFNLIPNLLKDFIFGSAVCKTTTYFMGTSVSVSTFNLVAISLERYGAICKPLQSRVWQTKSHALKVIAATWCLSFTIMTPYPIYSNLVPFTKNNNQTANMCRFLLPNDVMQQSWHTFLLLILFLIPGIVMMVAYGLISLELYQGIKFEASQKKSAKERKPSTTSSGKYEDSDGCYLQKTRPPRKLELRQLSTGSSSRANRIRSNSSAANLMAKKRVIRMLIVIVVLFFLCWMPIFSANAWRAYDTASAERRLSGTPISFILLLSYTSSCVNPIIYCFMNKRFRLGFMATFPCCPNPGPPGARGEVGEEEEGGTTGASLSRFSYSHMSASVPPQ
Further: assay procedure not described here.

Sequence of 3',5'-cyclic-AMP phosphodiesterase 4D (Q08499 whole entry): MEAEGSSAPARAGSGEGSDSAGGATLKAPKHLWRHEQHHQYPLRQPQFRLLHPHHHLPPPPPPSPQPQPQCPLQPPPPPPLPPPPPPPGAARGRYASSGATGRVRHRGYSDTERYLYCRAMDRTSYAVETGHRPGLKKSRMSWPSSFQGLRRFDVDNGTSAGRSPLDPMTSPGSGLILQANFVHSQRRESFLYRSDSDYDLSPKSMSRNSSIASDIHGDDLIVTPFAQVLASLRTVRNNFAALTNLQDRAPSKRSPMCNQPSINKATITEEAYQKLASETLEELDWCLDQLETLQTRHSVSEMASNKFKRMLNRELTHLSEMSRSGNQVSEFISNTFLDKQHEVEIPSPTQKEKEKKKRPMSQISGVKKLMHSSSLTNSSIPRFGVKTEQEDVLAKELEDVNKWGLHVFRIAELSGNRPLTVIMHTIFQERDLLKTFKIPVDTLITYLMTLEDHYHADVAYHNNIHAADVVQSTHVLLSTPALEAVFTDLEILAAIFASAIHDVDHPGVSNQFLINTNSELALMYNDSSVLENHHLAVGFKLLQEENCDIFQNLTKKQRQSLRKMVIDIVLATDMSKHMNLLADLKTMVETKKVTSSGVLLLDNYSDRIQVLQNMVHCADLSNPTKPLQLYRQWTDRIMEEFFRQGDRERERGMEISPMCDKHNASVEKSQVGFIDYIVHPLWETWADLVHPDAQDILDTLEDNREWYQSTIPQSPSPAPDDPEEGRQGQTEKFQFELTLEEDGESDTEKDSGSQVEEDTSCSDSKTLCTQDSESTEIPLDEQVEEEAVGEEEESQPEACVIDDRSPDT
Sequence of Vasopressin V2 receptor (P30518 whole entry): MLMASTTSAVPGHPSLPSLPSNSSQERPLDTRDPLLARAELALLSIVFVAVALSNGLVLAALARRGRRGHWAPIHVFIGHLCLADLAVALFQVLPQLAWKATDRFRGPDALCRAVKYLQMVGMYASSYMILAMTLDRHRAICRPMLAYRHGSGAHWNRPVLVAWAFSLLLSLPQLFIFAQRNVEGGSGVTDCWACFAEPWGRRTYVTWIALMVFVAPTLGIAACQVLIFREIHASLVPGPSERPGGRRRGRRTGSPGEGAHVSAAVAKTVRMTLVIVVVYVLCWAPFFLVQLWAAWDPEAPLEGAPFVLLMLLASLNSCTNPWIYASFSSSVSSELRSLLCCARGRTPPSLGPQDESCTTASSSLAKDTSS
Sequence of Growth hormone secretagogue receptor type 1 (Q92847 whole entry): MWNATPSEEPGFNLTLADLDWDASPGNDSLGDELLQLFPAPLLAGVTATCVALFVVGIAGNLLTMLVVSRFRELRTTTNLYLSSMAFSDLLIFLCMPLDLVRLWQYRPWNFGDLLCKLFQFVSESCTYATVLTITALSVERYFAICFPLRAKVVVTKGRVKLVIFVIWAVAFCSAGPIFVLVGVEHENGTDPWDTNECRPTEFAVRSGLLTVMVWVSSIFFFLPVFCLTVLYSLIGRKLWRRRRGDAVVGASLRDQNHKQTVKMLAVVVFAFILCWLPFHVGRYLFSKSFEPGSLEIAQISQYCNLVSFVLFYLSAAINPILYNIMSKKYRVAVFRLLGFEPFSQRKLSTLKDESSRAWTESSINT
Sequence of Delta-type opioid receptor (P41143 whole entry): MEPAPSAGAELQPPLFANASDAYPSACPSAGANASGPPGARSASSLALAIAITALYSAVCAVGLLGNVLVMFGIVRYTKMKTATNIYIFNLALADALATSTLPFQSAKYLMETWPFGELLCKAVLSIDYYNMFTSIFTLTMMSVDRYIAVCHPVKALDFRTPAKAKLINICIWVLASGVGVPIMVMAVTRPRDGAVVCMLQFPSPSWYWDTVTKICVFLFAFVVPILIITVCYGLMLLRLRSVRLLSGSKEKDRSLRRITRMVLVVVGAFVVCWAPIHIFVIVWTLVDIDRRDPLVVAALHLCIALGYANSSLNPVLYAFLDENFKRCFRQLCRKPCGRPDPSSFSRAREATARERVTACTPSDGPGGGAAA
Sequence of Motilin receptor (O43193 whole entry): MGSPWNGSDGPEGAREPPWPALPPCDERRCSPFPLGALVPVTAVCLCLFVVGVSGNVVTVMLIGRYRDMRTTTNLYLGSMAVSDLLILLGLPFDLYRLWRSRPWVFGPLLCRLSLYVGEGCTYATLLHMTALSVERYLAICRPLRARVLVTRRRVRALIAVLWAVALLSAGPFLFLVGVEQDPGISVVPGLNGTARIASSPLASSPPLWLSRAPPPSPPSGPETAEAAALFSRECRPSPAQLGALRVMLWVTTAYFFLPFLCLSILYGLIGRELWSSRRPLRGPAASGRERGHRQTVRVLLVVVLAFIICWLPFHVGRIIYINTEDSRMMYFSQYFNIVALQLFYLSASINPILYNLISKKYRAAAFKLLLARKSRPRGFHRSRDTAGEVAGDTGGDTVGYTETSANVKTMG
Sequence of cGMP-inhibited 3',5'-cyclic phosphodiesterase 3A (Q14432 whole entry): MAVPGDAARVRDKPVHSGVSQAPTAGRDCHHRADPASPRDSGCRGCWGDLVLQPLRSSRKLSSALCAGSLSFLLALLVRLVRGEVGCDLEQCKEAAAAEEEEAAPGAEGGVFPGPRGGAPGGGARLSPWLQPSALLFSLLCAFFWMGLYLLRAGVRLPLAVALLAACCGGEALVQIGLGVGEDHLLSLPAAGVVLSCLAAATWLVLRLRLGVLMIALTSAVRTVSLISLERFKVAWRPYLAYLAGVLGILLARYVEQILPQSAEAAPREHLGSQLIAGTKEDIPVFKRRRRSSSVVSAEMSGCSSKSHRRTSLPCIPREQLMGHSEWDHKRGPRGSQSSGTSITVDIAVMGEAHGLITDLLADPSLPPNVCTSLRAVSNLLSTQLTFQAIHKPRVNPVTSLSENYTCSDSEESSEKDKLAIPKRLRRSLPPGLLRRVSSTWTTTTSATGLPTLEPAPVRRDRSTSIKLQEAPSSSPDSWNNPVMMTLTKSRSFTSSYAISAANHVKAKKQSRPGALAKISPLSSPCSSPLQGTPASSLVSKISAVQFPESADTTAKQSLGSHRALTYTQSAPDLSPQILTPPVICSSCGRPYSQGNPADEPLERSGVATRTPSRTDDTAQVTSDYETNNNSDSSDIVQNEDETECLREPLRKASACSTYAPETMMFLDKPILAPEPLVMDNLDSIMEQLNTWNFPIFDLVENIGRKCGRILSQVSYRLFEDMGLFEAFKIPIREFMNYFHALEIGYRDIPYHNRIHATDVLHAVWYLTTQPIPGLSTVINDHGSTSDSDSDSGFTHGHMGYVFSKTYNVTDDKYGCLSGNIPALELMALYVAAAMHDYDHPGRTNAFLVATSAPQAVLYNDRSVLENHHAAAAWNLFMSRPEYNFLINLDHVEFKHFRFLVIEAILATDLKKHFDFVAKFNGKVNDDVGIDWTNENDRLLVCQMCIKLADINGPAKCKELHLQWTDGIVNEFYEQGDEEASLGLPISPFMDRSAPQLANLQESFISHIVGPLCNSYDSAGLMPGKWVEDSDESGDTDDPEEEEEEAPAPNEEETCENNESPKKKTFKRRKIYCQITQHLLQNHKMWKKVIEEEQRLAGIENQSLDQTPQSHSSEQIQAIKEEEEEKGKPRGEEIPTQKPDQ

SMILES | AC50 [1] [µM] | AC50 [2] [µM] | AC50 [3] [µM] | AC50 [4] [µM] | AC50 (Vasopressin V2 receptor) [µM] | AC50 (Motilin receptor) [µM] | AC50 [5] [µM] | AC50 [6] [µM] | AC50 (B2 bradykinin receptor) [µM] | AC50 [7] [µM] | AC50 [8] [µM]
CCCCC1C(=O)N(c2ccccc2)N(c2ccccc2)C1=O [PHENYLBUTAZONE] | > 30 | > 10 | > 30 | > 30 | > 30 | > 30 | > 30 | > 30 | > 30 | > 10 | > 30
[H]/N=C(/N)N/C(=N/[H])NCCc1ccccc1 [PHENFORMIN] | > 30 | > 30 | > 30 | > 30 | > 30 | > 10 | 22 | > 30 | > 30 | > 30 | > 30
CC[C@@H]([C@H](C)O)n1ncn(-c2ccc(N3CCN(c4ccc(OC[C@@H]5CO[C@@](Cn6cncn6)(c6ccc(F)cc6F)C5)cc4)CC3)cc2)c1=O [POSACONAZOLE] | > 30 | > 30 | – | – | – | – | > 30 | > 30 | – | – | –
CC1OC2(CS1)CN1CCC2CC1 (stereo not drawn) [CEVIMELINE] | > 30 | > 30 | > 10 | > 10 | > 10 | > 10 | > 30 | > 30 | > 10 | > 10 | > 10
CCC(C)C1(CC)C(=O)NC(=O)NC1=O (stereo not drawn) [BUTABARBITAL] | – | > 30 | – | > 30 | > 30 | > 30 | > 30 | > 30 | > 30 | > 30 | > 30
Oc1ccc2c(c1)CC[C@H](c1ccccc1)[C@@H]2c1ccc(OCCN2CCCC2)cc1 [LASOFOXIFENE] | 7.2 | > 30 | 25 | 5.2 | 15 | 2.9 | > 30 | 15 | > 30 | > 30 | > 3
Cc1cccc(N2CC(CO)OC2=O)c1 (stereo not drawn) [TOLOXATONE] | – | – | > 30 | > 30 | > 30 | > 30 | > 30 | > 30 | > 30 | > 30 | > 30
Cc1cc(C(C)(C)C)cc(C)c1CC1=NCCN1 [XYLOMETAZOLINE] | > 30 | > 30 | > 30 | > 30 | > 30 | > 30 | > 30 | > 30 | > 30 | 0.0178 | > 30
COc1cc(N)c(Cl)cc1C(=O)NC1CCN(Cc2ccccc2)CC1 [CLEBOPRIDE] | > 30 | > 30 | > 30 | > 30 | > 30 | > 30 | 7.7 | 2.9 | > 30 | > 30 | > 30
C[C@]12CC[C@@H]3c4ccc(O)cc4C[C@@H](CCCCCCCCC[S+]([O-])CCCC(F)(F)C(F)(F)F)[C@H]3[C@@H]1CC[C@@H]2O (stereo partly drawn) [FULVESTRANT] | > 30 | > 30 | > 30 | > 30 | > 30 | > 30 | > 30 | > 30 | > 30 | > 30 | > 30
CC(N)C(O)c1ccccc1 (stereo not drawn) [PHENYLPROPANOLAMINE] | > 10 | > 10 | > 30 | > 30 | > 30 | > 10 | > 30 | > 30 | > 30 | > 10 | > 30
OC1(c2ccc(Cl)cc2)c2ccccc2C2=NCCN21 (stereo not drawn) [MAZINDOL] | > 30 | > 30 | > 30 | > 30 | > 30 | > 30 | > 30 | > 30 | > 30 | > 30 | > 30
O=C(O)c1cn(C2CC2)c2cc(N3CCNCC3)c(F)cc2c1=O [CIPROFLOXACIN] | – | – | > 30 | > 30 | > 30 | > 10 | > 30 | > 30 | > 30 | – | > 30
O=[N+]([O-])c1ccc(O)c2ncccc12 [NITROXOLINE] | 5.7 | > 30 | – | – | – | – | > 30 | 3.2 | – | > 30 | –
CN(C)CCCNc1c2ccccc2nc2cccc([N+](=O)[O-])c12 [NITRACRINE] | – | 19 | > 30 | > 30 | > 30 | > 30 | > 30 | 21 | > 30 | > 30 | > 30
CNCc1ccc(-c2[nH]c3cc(F)cc4c3c2CCNC4=O)cc1 [RUCAPARIB] | – | > 10 | > 30 | > 30 | > 30 | > 30 | > 30 | 10 | > 30 | – | > 30
Cc1cc2cc3c(C)cc(=O)oc3c(C)c2o1 [TRIOXSALEN] | > 30 | 0.72 | > 10 | > 10 | > 10 | > 10 | > 30 | – | > 10 | > 10 | > 10
CCC[C@H](NC(=O)[C@@H]1[C@H]2CCC[C@H]2CN1C(=O)[C@@H](NC(=O)[C@@H](NC(=O)c1cnccn1)C1CCCCC1)C(C)(C)C)C(=O)C(=O)NC1CC1 | > 30 | > 10 | > 30 | > 30 | > 30 | > 10 | > 30 | > 30 | > 30 | – | > 30
CN1CCN(C2=Nc3ccccc3Oc3ccc(Cl)cc32)CC1 [LOXAPINE] | 8.51 | > 10 | > 30 | > 30 | > 30 | > 10 | > 30 | – | > 30 | > 10 | > 30
